Reference: PubChem BioAssay (NCI)
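Cells were grown in 96-well plates and exposed to each compound for 48 hours at five concentrations; endpoints were interpolated linearly between bracketing concentrations, or set to the highest concentration if not reached. TGI marks complete inhibition of growth.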

Assays:
Assay in all cases: NCI tumour cell line growth inhibition, 48 h
EKVX NSCLC = tested on: EKVX NSCLC
HCT-15 colon = tested on: HCT-15 colon
LOX IMVI melanoma = tested on: LOX IMVI melanoma
M14 melanoma = tested on: M14 melanoma
MDA-MB-435 = tested on: MDA-MB-435
MDA-N = tested on: MDA-N
NCI-H226 lung = tested on: NCI-H226 lung
NCI-H522 lung = tested on: NCI-H522 lung
RPMI-8226 leukemia = tested on: RPMI-8226 leukemia
SF-539 CNS = tested on: SF-539 CNS
SK-MEL-28 melanoma = tested on: SK-MEL-28 melanoma
T-47D breast = tested on: T-47D breast

| SMILES | TGI (EKVX NSCLC) [µM] | TGI (HCT-15 colon) [µM] | TGI (LOX IMVI melanoma) [µM] | TGI (M14 melanoma) [µM] | TGI (MDA-MB-435) [µM] | TGI (MDA-N) [µM] | TGI (NCI-H226 lung) [µM] | TGI (NCI-H522 lung) [µM] | TGI (RPMI-8226 leukemia) [µM] | TGI (SF-539 CNS) [µM] | TGI (SK-MEL-28 melanoma) [µM] | TGI (T-47D breast) [µM] |
| --- | --- | --- | --- | --- | --- | --- | --- | --- | --- | --- | --- | --- |
| CCOC(=O)Cc1ccc(Nc2nc3cc(F)c(F)cc3nc2C(=O)OCC)cc1 | 56.4 | > 100 | > 100 | > 100 | > 100 | > 100 | > 100 | 35.5 | > 100 | > 100 | > 100 | > 100 |
| Oc1ccccc1CNCc1ccccc1O | > 100 | > 100 | > 100 | > 100 | > 100 | > 100 | > 100 | > 100 | > 100 | > 100 | > 100 | > 100 |
| CCCCCCC(O)C(=O)OC1C2C(CC1(C)C)C(O)C13OC1C(O)C1(CO1)[C@@]23C (some centres undefined) | > 100 | > 100 | > 100 | > 100 | > 100 | > 100 |  | > 100 | > 100 |  | > 100 | > 100 |
| O=c1[nH]c(Br)nc2n[nH]nc12 | > 100 | > 100 | > 100 | > 100 | > 100 | > 100 | > 100 | > 100 | > 100 | 94.9 |  | > 100 |
| Nc1n[nH]c(N)n1 | > 7740 | > 10000 | 7400 | > 10000 | > 10000 | > 10000 | > 10000 | 4640 | > 10000 | 8860 | > 10000 | > 10000 |
| CC(C)(C)c1cc(OCc2n[nH]c(=S)n2N)c(Cl)cc1OCc1n[nH]c(=S)n1N | > 100 | > 100 | > 100 | > 100 | > 100 | > 100 | > 100 | > 100 | > 100 | > 100 | > 100 | > 100 |
| CCOC(=O)CN1C(=O)c2c(NC(=O)C(=O)O)cccc2S1(=O)=O | > 100 | > 100 | > 100 | > 100 | > 100 | > 100 | > 100 | > 100 | > 100 |  | > 100 | > 100 |
| O=C(NCCCN1CCN(CCCNC(=O)c2cc(-c3ccccc3)nc3ccccc23)CC1)c1cc(-c2ccccc2)nc2ccccc12 | 51.5 | > 100 | 10.6 | 5.63 | 14.7 | 20.4 | > 65.3 | 32 | > 57.8 | 41.5 | 3.99 | 33.9 |
| COc1cccc(C2c3cc4c(cc3OC(NNC(N)=O)C2C)OCO4)c1OC (centres undefined) | > 100 | 77.7 | 45.6 | 40.6 | 70.1 | 82.7 | 76.1 | 61.5 | 46.1 | 37.5 | 72.7 | > 100 |
